Measurements: article PMC12505902, “Inhibitors of trehalose-6-phosphate synthase activity in fungal pathogens compromise thermal tolerance pathways” (mBio, 2025)

Biological target: 6xHis-CnTps1 (Cryptococcus neoformans var. grubii, UniProt J9VJZ1)
Experiment: Spectrophotometric-coupled Tps1 enzyme activity assay
Type: biochemical, C. neoformans
Conditions: 1 mM 4456dh
Method: Fig 2 4456dh binds Tps1 and inhibits Tps1 activity. (A) Structure of 4456dh. (B and C) Glo-melt thermal shift assays reveal 4456dh destabilizes 6xHis-CaTps1 (B) and 6xHis-CnTps1 (C). The first derivative of the raw data was used to determine the melting temperature of 1 µM 6xHis-CaTps1 (B) and 1 µM 6xHis-CnTps1 (C) treated without (black) or with 2 mM 4456dh (red). […] The resulting dose-response curves were fitted to a one-site binding model to extract Kd values; the SD was calculated using the Kd values from each independent experiment (n = 3). (F) Tps1 enzyme activity assay with 5 µM 6xHis-CaTps1 (F) and 6xHis-CnTps1 (G) ±1 mM 4456dh. Error bars represent SE. […]
The ability of 4456dh to inhibit the activity of CaTps1 was tested using a spectrophotometric-coupled Tps1 enzyme assay, in which recombinant 6xHis-CaTps1 was incubated with 1 mM 4456dh at 4°C for 16 hours. […] Similarly, the effect of 1 mM 4456dh on 6xHis-CnTps1 activity was determined. […]
82 determined by SDS-PAGE analysis, were pooled and concentrated to 1 mg/mL for downstream […]
93 The data were acquired with MO.Control 1.5.3 (NanoTemper Technologies GmbH). Recorded
94 data were analyzed with MO.Affinity Analysis 2.2.7 (NanoTemper Technologies GmbH). […]
100 2X Glo-melt dye. Thermal denaturation was measured using an RT-PCR thermocycler (BioRad) […]
102 determined by identifying the inflection point of the derivative data. […]

6xHis-CnTps1, sequence (J9VJZ1 entry or part of it): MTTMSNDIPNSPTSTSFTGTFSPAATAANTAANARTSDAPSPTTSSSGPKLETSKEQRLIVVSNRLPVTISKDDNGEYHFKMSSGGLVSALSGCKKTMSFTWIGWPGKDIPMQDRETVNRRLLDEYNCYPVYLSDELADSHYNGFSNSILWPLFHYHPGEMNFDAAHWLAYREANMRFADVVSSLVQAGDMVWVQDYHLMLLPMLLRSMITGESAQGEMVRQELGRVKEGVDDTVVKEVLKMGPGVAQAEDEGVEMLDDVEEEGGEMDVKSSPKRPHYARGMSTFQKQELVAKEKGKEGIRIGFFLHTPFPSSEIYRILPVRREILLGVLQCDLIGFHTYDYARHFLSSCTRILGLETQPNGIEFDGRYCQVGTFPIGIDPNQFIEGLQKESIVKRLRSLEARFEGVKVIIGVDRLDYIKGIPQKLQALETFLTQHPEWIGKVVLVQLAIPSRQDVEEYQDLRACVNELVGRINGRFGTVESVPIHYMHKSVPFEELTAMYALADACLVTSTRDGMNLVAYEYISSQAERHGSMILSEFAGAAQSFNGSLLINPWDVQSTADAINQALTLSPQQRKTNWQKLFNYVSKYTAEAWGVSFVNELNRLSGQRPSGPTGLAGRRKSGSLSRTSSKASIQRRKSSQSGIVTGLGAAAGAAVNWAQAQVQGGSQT

## Cn1cc(-c2csc(NC(=O)Cc3ccccn3)n2)cn1 [Compound 4456dh]
  inhibition at 1000 µM: ~30%
